Earlier results in patent US20210268001A1, “USE OF MIOTIC C[…] F2a PRO[…] FOR PREVENTION AND TREATMENT OF MYOPIA” (priority 2018, published 2021).

What was measured:
[1] = test system: corneal epithelium epithelial cells
cholinergic receptors = test system: cholinergic receptors; set-up: unit not given here; details: reversible acetylcholinesterase inhibitors

SMILES | cytotoxic effect on epithelial cells ([1]; high concentration of NO (100 mM NaNO2), over the same period (6 hs)) | viability of epithelial cells ([1]; low concentrations of NO (1 nM to 1 mM NaNO2), 6 hs after application) | action time (cholinergic receptors)
O=N[O-].[Na+] [NaNO2] | cytotoxic effect | significantly increased | 
COc1cc2c(cc1OC)C(=O)C(CC1CCN(Cc3ccccc3)CC1)C2 (stereo not shown) [donepezil] |  |  | one to two
CC[N+](C)(C)c1cccc(O)c1 [edrophonium] |  |  | one to two
CN(C)C(=O)Oc1cccc([N+](C)(C)C)c1 [neostigmine] |  |  | one to two
CN(C)C(=O)Oc1ccc[n+](C)c1 [pyridostigmine] |  |  | one to two
CCN(C)C(=O)Oc1cccc([C@H](C)N(C)C)c1 [rivastigmine] |  |  | one to two
